According to the NIST ThermoML archive (doi:10.1016/j.jct.2016.03.026):

Test: xn = mol fraction of the nth substance listed
Conditions: 304.21 K, Fluid (supercritical or subcritical phases), Vibrating tube method, x1 = 0.97

O=C=O [carbon dioxide] + CO
Conditions | mass density [kg/m3]
10625 kPa | 791.47
10650 kPa | 791.91
10675 kPa | 792.32
10700 kPa | 792.79
10725 kPa | 793.26
10750 kPa | 793.67
10775 kPa | 794.08
10800 kPa | 794.49
10825 kPa | 794.91
10850 kPa | 795.38
10875 kPa | 795.84
10900 kPa | 796.21
10925 kPa | 796.66
10950 kPa | 797.06
10975 kPa | 797.53
11000 kPa | 797.93
11025 kPa | 798.32
11050 kPa | 798.73
11075 kPa | 799.17
11100 kPa | 799.63
11125 kPa | 799.99
11150 kPa | 800.45
11175 kPa | 800.8
11200 kPa | 801.23
11225 kPa | 801.64
11250 kPa | 802.05
11275 kPa | 802.5
11300 kPa | 802.86
11325 kPa | 803.31
11350 kPa | 803.73
11375 kPa | 804.09
11400 kPa | 804.56
11425 kPa | 804.93
11450 kPa | 805.27
11475 kPa | 805.69
11500 kPa | 806.12
11525 kPa | 806.52
11550 kPa | 806.91
11575 kPa | 807.3
11600 kPa | 807.66
11625 kPa | 808.01
11650 kPa | 808.41
11675 kPa | 808.81
11700 kPa | 809.25
11725 kPa | 809.62
11750 kPa | 810
11775 kPa | 810.37
11800 kPa | 810.74
11825 kPa | 811.11
11850 kPa | 811.47
11875 kPa | 811.83
11900 kPa | 812.25
11925 kPa | 812.53
11950 kPa | 812.98
11975 kPa | 813.33
12000 kPa | 813.7
12025 kPa | 814.08
12050 kPa | 814.43
12075 kPa | 814.76
12100 kPa | 815.17
12125 kPa | 815.5
12150 kPa | 815.82
12175 kPa | 816.22
12200 kPa | 816.54
12225 kPa | 816.89
12250 kPa | 817.23
12275 kPa | 817.54
12300 kPa | 817.94
12325 kPa | 818.27
12350 kPa | 818.61
12375 kPa | 818.95
12400 kPa | 819.29
12425 kPa | 819.62
12450 kPa | 819.95
12475 kPa | 820.29
12500 kPa | 820.61
12525 kPa | 820.93
12550 kPa | 821.24
12575 kPa | 821.61
12600 kPa | 821.94
12625 kPa | 822.23
12650 kPa | 822.53
12675 kPa | 822.85
12700 kPa | 823.18
12725 kPa | 823.45
12750 kPa | 823.79
12775 kPa | 824.13
12800 kPa | 824.43
12825 kPa | 824.72
12850 kPa | 825.02
12875 kPa | 825.36
12900 kPa | 825.66
12925 kPa | 825.97
12950 kPa | 826.28
12975 kPa | 826.52
13000 kPa | 826.85
13025 kPa | 827.19
13050 kPa | 827.45
13075 kPa | 827.74
13100 kPa | 828.02
13125 kPa | 828.34
13150 kPa | 828.59
13175 kPa | 828.91
13200 kPa | 829.21
13225 kPa | 829.5
13250 kPa | 829.81
13275 kPa | 830.06
13300 kPa | 830.33
13325 kPa | 830.63
13350 kPa | 830.91
13375 kPa | 831.19
13400 kPa | 831.47
13425 kPa | 831.75
13450 kPa | 832.03
13475 kPa | 832.3
13500 kPa | 832.56
13525 kPa | 832.83
13550 kPa | 833.09
13575 kPa | 833.35
13600 kPa | 833.6
13625 kPa | 833.85
13650 kPa | 834.12
13675 kPa | 834.42
13700 kPa | 834.66
13725 kPa | 834.9
13750 kPa | 835.2
13775 kPa | 835.42
13800 kPa | 835.64
13825 kPa | 835.86
13850 kPa | 836.06
13875 kPa | 836.22
13900 kPa | 836.51
13925 kPa | 836.81
13950 kPa | 837.08
13975 kPa | 837.35
14000 kPa | 837.64
14025 kPa | 837.92
14050 kPa | 838.19
14075 kPa | 838.5
14100 kPa | 838.78
14125 kPa | 839.03
14150 kPa | 839.31
14175 kPa | 839.62
14200 kPa | 839.87
14225 kPa | 840.12
14250 kPa | 840.43
14275 kPa | 840.68
14300 kPa | 840.92
14325 kPa | 841.24
14350 kPa | 841.49
14375 kPa | 841.72
14400 kPa | 842.04
14425 kPa | 842.27
14450 kPa | 842.52
14475 kPa | 842.78
14500 kPa | 843.08
14525 kPa | 843.34
14550 kPa | 843.58
14575 kPa | 843.9
14600 kPa | 844.14
14625 kPa | 844.38
14650 kPa | 844.61
14675 kPa | 844.86
14700 kPa | 845.17
14725 kPa | 845.44
14750 kPa | 845.72
14775 kPa | 845.96
14800 kPa | 846.19
14825 kPa | 846.5
14850 kPa | 846.73
14875 kPa | 846.98
14900 kPa | 847.24
14925 kPa | 847.52
14950 kPa | 847.71
14975 kPa | 848
15000 kPa | 848.29
15025 kPa | 848.51
15050 kPa | 848.76
15075 kPa | 849.02
15100 kPa | 849.3
15125 kPa | 849.56
15150 kPa | 849.76
15175 kPa | 850.04
15200 kPa | 850.3
15225 kPa | 850.56
15250 kPa | 850.76
15275 kPa | 851.04
15300 kPa | 851.23
15325 kPa | 851.51
15350 kPa | 851.79
15375 kPa | 851.98
15400 kPa | 852.22
15425 kPa | 852.43
15450 kPa | 852.7
15475 kPa | 852.92
15500 kPa | 853.2
15525 kPa | 853.4
15550 kPa | 853.64
15575 kPa | 853.89
15600 kPa | 854.15
15625 kPa | 854.39
15650 kPa | 854.57
15675 kPa | 854.81
15700 kPa | 855.06
15725 kPa | 855.3
15750 kPa | 855.49
15775 kPa | 855.71
15800 kPa | 855.96
15825 kPa | 856.2
15850 kPa | 856.41
15875 kPa | 856.68
15900 kPa | 856.93
15925 kPa | 857.08
15950 kPa | 857.32
15975 kPa | 857.56
16000 kPa | 857.77
16025 kPa | 857.95
16050 kPa | 858.19
16075 kPa | 858.44
16100 kPa | 858.66
16125 kPa | 858.84
16150 kPa | 859.07
16175 kPa | 859.32
16200 kPa | 859.52
16225 kPa | 859.74
16250 kPa | 859.97
16275 kPa | 860.2
16300 kPa | 860.35
16325 kPa | 860.63
16350 kPa | 860.83
16375 kPa | 861.01
16400 kPa | 861.22
16425 kPa | 861.43
16450 kPa | 861.65
16475 kPa | 861.85
16500 kPa | 862.01
16525 kPa | 862.21
16550 kPa | 862.42
16575 kPa | 862.62
16600 kPa | 862.9
16625 kPa | 863.08
16650 kPa | 863.26
16675 kPa | 863.56
